This passage reports TGI and GI50 results from PubChem BioAssay (NCI).

Several values for one entry are separate records, joined by “and”; a condition that tells them apart may be missing. Equal values may be shown once.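 Grown in 96-well plates, cells were treated for 48 hours with each compound at five concentrations. Insufficient inhibition: endpoint recorded as highest concentration tested. GI50 is the concentration that inhibits growth by half. Definition used: TGI = concentration required for complete inhibition of growth.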

Holding throughout (experiment): growth of human tumour cells (NCI), 48 h
Experiment [1] concerns LOX IMVI melanoma.
For experiment [2], the system named is HT29 colon.
Experiment [3] has as its system SW-620 colon.
In experiment [4] the test system is M14 melanoma.
Experiment [5] has as its system DLD-1 colon.
Experiment [6] concerns HOP-92 NSCLC.
Experiment [7] relates to NCI-H460 lung.
The test system of experiment [8] is KM20L2 colon.
Experiment [9] has as its system SF-268 CNS.
The subject of experiment [10] is PC-3 prostate.

Regarding `Cc1noc2cccc(OCc3ccccc3)c12`, the TGI in experiment [1], in [2], in experiment [3], in [4], in experiment [5] and in experiment [6] was more than 100 µM throughout. In addition, the TGI in experiment [7], in experiment [8] and in experiment [9] was more than 100 µM each time.
For the molecule `O=S(=O)(N/N=C/c1ccc(Cl)c(Cl)c1)c1ccccc1`, the TGI in experiment [1] is more than 100 µM; in experiment [2], more than 100 µM; in experiment [3] it was more than 100 µM; in [4], more than 100 µM; in experiment [5], more than 100 µM; in [6], 48.6 µM. For the same molecule, the TGI in [8] and in experiment [9] was more than 100 µM each time.
As for `O=C(C=Nc1ccccc1C(=O)[O-])c1cccs1.O=C(C=Nc1ccccc1C(=O)[O-])c1cccs1.[Co+2]`, the TGI in [1], in experiment [2], in experiment [3], in experiment [4], in experiment [5] and in [6] was more than 100 µM each time. The TGI in experiment [7], in [8] and in experiment [9] was more than 100 µM each time.
`Cc1oc2c(C)c3oc(=O)cc(C)c3cc2c1CNC(=O)[C@@H]1OCCOCCOCCOCCOCCOC1C(=O)O` (some centres not stated): the TGI is more than 100 µM in experiment [1]; more than 100 µM in experiment [2]; more than 100 µM in [3]; 27.5 µM in experiment [4]; more than 100 µM in experiment [5]; more than 100 µM in experiment [6]. In addition, the TGI in [7], in experiment [8] and in experiment [9] was more than 100 µM throughout.
For the molecule `CCC[CH2][Sn]([CH2]CCC)([O]C(=O)c1cc(F)ccc1F)[O][Sn]([CH2]CCC)([CH2]CCC)[O]C(=O)c1cc(F)ccc1F`, the GI50 in experiment [1] is 0.132 µM; in experiment [2], 0.899 µM; in experiment [3], 0.116 µM; in [4] it was 0.367 µM; in [5], 0.206 µM; in experiment [6] it was 0.148 µM. Besides, the GI50 in experiment [7] is 1.03 µM; in experiment [8], 0.779 µM; in experiment [9], 0.216 µM; in experiment [10], 0.759 µM. In addition, the TGI in experiment [1] amounted to 0.306 µM; in experiment [2], 2.21 µM; in [3] it was 0.274 µM; in experiment [4] it was 1.25 µM; in experiment [5], 0.974 µM; in experiment [6] it was 0.491 µM. Moreover, the TGI in experiment [7] came out at 2.48 µM; in experiment [8] it was 2.11 µM; in experiment [9] it was 0.798 µM; in experiment [10], 2.01 µM.
As to `Cc1ccccc1C1=[N+]([O-])c2ccccc2C1=O`, the TGI was determined as 35 µM in experiment [1]; 27.7 µM in experiment [2]; 45.1 µM in experiment [3]; 32.4 µM in [4]; 31.9 µM in experiment [5]; 62.5 µM in [6]. For the same molecule, the TGI in experiment [7] was found to be 37.3 µM; in experiment [8], 32.9 µM; in experiment [9] it was 36.8 µM.
For `COC(c1cccc(C(O)(C(F)(F)F)C(F)(F)F)c1)(C(F)(F)F)C(F)(F)F`, the TGI in experiment [1] was 34.1 µM; in experiment [2], 31.6 µM; in experiment [3] it was 32.9 µM; in experiment [4], 34 µM; in experiment [5], 34.6 µM; in [7] it was 41.5 µM. Also, the figures for the TGI in [8] and in [9] were 31.2 µM and 38.5 µM, respectively.
On to `COc1ccc2c(c1)C(=O)N1CCOC1C2C(=O)O` (configuration not stated), for which the TGI in experiment [1], in [2], in [3], in experiment [4], in [5] and in experiment [6] was more than 100 µM each time. In addition, the TGI in experiment [7], in experiment [8] and in experiment [9] was more than 100 µM throughout.
With `CC(=O)O[C@@]12CO[C@@H]1C[C@H](O)[C@@]1(C)C(=O)[C@H](O)C3=C(C)[C@@H](OC(=O)[C@H](O)[C@@H](NC(=O)OC(C)(C)C)c4ccccc4)C[C@@](O)([C@@H](OC(=O)c4ccccc4)[C@H]21)C3(C)C`, the GI50 in [1] is 0.00308 µM and 0.00368 µM; in experiment [2], 0.00746 µM and 0.00257 µM; in [3] it was 0.00764 µM and 0.00646 µM; in experiment [4] it was 0.0154 µM and 0.0205 µM; in experiment [5], 0.0352 µM and 0.0338 µM; in experiment [7], 0.000351 µM. The GI50 was 0.00818 µM in experiment [8]; 0.0677 µM and 0.0392 µM in experiment [9]. Further, the TGI in experiment [1] was 42.1 µM; in experiment [3], more than 68.4 µM; in [4] it was 0.281 µM; in experiment [5] it was more than 75.4 µM; in [6], 59.4 µM; in experiment [7], 41 µM. Also, the TGI is 0.022 µM in experiment [8], 77.6 µM in experiment [9] and more than 100 µM in experiment [10].
As for `CCCOC(=O)C1CCC(=O)N1C(=O)C(C)Cl` (configuration not stated), the TGI in experiment [1], in [2], in experiment [3], in experiment [4], in experiment [5] and in [6] was more than 100 µM each time. In addition, the TGI in experiment [7], in [8] and in [9] was more than 100 µM each time.
For `CC1(Cl)CC2OC3(Br)C=CC(C)(O)C2(CC1Br)C3(C)C` (configuration not stated), the TGI in experiment [1], in experiment [2], in experiment [3], in [4], in experiment [5] and in [6] was more than 100 µM each time. The TGI in experiment [7], in experiment [8] and in experiment [9] was more than 100 µM each time.
As to `COc1cc2c(cc1O)-c1c(cnn1-c1ccc([N+](=O)[O-])cc1)CCC2`, the TGI in experiment [1] is 26.5 µM; in experiment [2], 35.6 µM; in [3], 91.3 µM; in [4], 49.6 µM; in [6], more than 100 µM; in [7], more than 100 µM. In addition, the TGI is more than 100 µM in [9] and 58.7 µM in [10].
As to `CC1OC(n2ccc(=O)[nH]c2=O)C=C(OC(=O)c2ccccc2)C1=O` (configuration not stated), the TGI in experiment [1] is more than 100 µM; in experiment [2], more than 100 µM; in experiment [3] it was more than 100 µM; in experiment [4] it was more than 100 µM; in experiment [5] it was more than 100 µM; in experiment [6] it was 99.6 µM. Also, the TGI in [7] and in experiment [8] was more than 100 µM throughout.
